The record followed here is patent US5670520A, “Method for inhibiting virus replication in mammalian cells using carbostyil derivatives” (Otsuka Pharmaceutical Co., Ltd., priority 1996, dated 1997).

One experiment concerns CMV strain AD169. Briefly: CMV plaque reduction assay in MRC5 cells. Format: cell-based. The following applies: Human betaherpesvirus 5, AD169, MRC5, 168 h. The method, then:
More specifically, subconfluent monolayers of MRC5 cells (Biowhittaker, Walkersville, Md.) in 12-well tissue culture plates were exposed to a suspension of a 1:500 dilution of stock virus (CMV strain AD169; ATCC No. VR-538) in Eagles Minimal Essential Medium (MEM) supplemented with 2.0% (v/v) fetal bovine serum, for 2 hr at 37° C. to allow for virus absorption. The fluid containing unabsorbed virus was then removed, and the cell layer rinsed with Eagles MEM without serum.
The minimum compound concentration that reduces plaque production by 50% (MIC50) was calculated from single compound assays by using a regression analysis program for semilog curve fitting.
The following formula of additivity, which is appropriate for inhibitors affecting different sites, was used.

The subject of a further experiment is Akata cells. Nature of the experiment: dNTP pools in Akata cells (enzymatic method). Conditions: 100 μg/ml vesnarinone.
The target in the next experiment is T1, E. coli DNA polymerase I (Escherichia coli, UniProt P00582).
T1 construct: purchased Boehringer Mannheim
Briefly: In vitro DNA polymerase assay. It is filed as biochemical. Conditions: vesnarinone up to 100 μg/ml.

≈ marks a conversion by molar mass, not a printed value.

T1 sequence (P00582 whole entry): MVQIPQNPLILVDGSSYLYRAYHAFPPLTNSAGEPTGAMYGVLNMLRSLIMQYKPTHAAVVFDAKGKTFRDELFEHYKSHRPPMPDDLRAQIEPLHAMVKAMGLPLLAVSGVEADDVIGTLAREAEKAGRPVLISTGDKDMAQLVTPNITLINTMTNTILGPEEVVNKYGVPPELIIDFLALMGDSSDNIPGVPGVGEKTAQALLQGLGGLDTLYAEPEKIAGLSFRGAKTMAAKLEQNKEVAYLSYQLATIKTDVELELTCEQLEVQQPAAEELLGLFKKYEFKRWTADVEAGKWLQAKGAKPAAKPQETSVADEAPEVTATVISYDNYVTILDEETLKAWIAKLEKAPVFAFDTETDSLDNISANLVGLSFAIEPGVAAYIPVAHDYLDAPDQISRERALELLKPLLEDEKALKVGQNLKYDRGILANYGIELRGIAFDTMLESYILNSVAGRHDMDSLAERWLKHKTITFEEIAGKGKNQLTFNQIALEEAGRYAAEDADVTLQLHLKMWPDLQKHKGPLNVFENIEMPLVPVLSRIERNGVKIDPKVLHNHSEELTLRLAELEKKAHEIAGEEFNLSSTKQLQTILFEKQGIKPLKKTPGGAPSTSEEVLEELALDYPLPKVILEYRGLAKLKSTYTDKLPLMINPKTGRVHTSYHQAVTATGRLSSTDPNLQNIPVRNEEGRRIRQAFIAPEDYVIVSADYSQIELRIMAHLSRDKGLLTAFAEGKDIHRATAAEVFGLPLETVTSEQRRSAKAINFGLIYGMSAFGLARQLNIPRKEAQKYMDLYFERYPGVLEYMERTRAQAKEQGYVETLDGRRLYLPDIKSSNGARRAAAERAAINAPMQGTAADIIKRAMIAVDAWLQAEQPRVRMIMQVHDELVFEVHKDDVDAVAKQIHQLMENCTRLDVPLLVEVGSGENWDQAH
Protocol for Akata cells: After a 10 min incubation on ice, the supernatant containing dNTPs was removed, frozen and evaporated with a rotary evaporator. The residue was dissolved in 100 μl of H2 O, and a 10 μl aliquot of this solution was used for the measurement of dNTP pool.
More specifically, 10 μl of the sample or a dNTP standard solution was mixed with 40 μl of the reaction buffer comprising 62.5 mMTris-HCl (pH 7.8), 0.625 mM DTT, 0.125 mg/ml calf thymus DNA (Sigma), 0.625 mg/ml BSA, 10 mM MgCl2, 6.25 μM three dNTPs, and 5.0 μCi/ml [^3 H]dATP (ICN, Costa Mesa, Calif.), for measurement of dTTP, dCTP, and dGTP, or [^3 H]dTTP (ICN), for measurement of dATP. The reaction solution was then mixed with 1.0 unit of E. coli DNA polymerase I (Boehringer Mannheim), and incubated for 40 min at 37° C. After completion of the reaction, the mixture was applied to Whatman DE-81 paper filters and radioactivity was determined using a liquid scintillation counter after three washes with 0.35M Na2 HPO4 (pH 7.5). Amounts of dNTP in the samples were calculated according to the calibration curves estimated by a set of standard dNTP samples.
In parallel, to measurement of the content of dNTPs in the untreated Akata cells after release, the dNTP pool in anti-IgG treated Akata cells was also measured in the same manner.

`COc1ccc(C(=O)N2CCN(c3ccc4c(c3)CCC(=O)N4)CC2)cc1OC` [vesnarinone, 3,4-dihydro-6-[4-(3,4-dimethoxybenzoyl)-1-piperazinyl]-2(1H)-quinoline]: in the experiment with CMV strain AD169 (read-out: efficacy against CMV plaque formation), the inhibition at 30 µg/mL came out at 91.5%. The EC50 in the experiment with CMV strain AD169 (single compound assay, regression analysis, read-out: MIC50 (minimum concentration that reduces plaque production by 50%)) is 24 µg/mL (≈ 60.7 µM). Further, the “cellular content of dATP and dGTP” value in the experiment with Akata cells (13 hrs after DMSO release, without anti-IgG) is “displayed progressive reductions 13 hrs after release in the presence of vesnarinone”. The “level of dTTP in anti-IgG treated cells” value in the experiment on Akata cells (20 hrs after anti-IgG) is reported as “partially suppressed in the presence of vesnarinone”. In addition, the “cellular content of dCTP” value in the experiment on Akata cells (after DMSO release) is given as “remained low in the presence or absence of vesnarinone”. Also, in the experiment with Akata cells (after DMSO release, without anti-IgG), the “cellular content of dTTP” value is listed as “the levels of dTTP remained quite low”. Besides, the “effect on in vitro DNA polymerase assay” value on E. coli DNA polymerase I is given as “has no effect on the measurement of dNTP contents in this in vitro DNA polymerase assay”.
